Patent US20070203244A1, “INHIBITORS OF MEMBRANE TYPE-1 MATRIX METALLOPROTEINASE FOR THE TREATMENT OF INSULIN-DEPENDENT DIABETES MELLITUS” (priority 2006, published 2007)

Legend:
NOD mice = test: Spontaneous diabetes in NOD mice, insulin jointly with AG3340; assay type: in vivo
Description: Newly diabetic NOD mice—NOD mice developed diabetes in approximately 5 months after the birth. The onset of spontaneous diabetes was identified by assessing urine glucose levels with Diastix® strips (Bayer). Mice with urine glucose levels >2000 mg/dl for three consecutive days were considered diabetic. […] Injections were continued for 40 days and then mice were sacrificed. Leukocytes and granulated β cells were stained with H&E and aldehyde fuchsin, respectively, in the sections of paraformaldehyde-fixed, paraffin-embedded, pancreata. […] To identify hormone-producing cells the sections were stained with the antibody to insulin (Linco Research, St. Charles, Mo.) and glucagons (DacoCytomation, Carpinteria, Calif.) followed by species-specific secondary horseradish peroxidase-conjugated antibody and a 3,3′-diaminobenzidine substrate.
Insulin injections were then suspended. Mice which after the onset of the disease received insulin became hyperglycemic in a matter of 2-3 days and were then sacrificed according to NIH guidelines.

MT1-MMP = target: T1, MT1-MMP (Mus musculus, UniProt P53690); test: MT1-MMP-dependent MMP-2 activation in adherent IS-CD8+ cells, gelatin zymography; assay type: cell-based, NOD mouse
T1 construct: Endogenous MT1-MMP is latent in non-adherent IS-CD8^+ cells; endogenous in cells; host or cells: IS-CD8+ T cells (TGNFC8 clone, NOD mouse), adherent to gelatin
Description: MT1-MMP-dependent MMP-2 Activation and Gelatin Zymography—IS-CD8^+ cells (1×10^6) were either allowed to adhere for 4 h in serum-free unsupplemented Click's medium to plastic coated with 2% gelatin or kept in solution. Under these experimental conditions, the vast majority of cells became attached to gelatin. In 4 h, media samples (30 μl each) were withdrawn and analyzed by gelatin zymography (Deryugina, E. I., et al. (2001)) to identify the proteolytic activity and the activation status of MMP-2 naturally synthesized by IS-CD8^+ cells. Where indicated, cells were supplemented with external purified pro-MMP-2 (20 ng). Pro-MMP-2 was isolated from a conditioned medium of p2AHT2A72 cells derived from an HT1080 fibrosarcoma cell line sequentially transfected with the E1A and MMP-2 cDNAs (Strongin, A. Y., et al. (1995)).
MT1-MMP-dependent MMP-2 activation and gelatin zymography—IS-CD8^+ cells (1×10^6) were either allowed to adhere for 4 h in serum-free unsupplemented Click's medium to the plastic coated with 2% gelatin or kept in solution. In 18 h, media samples (30 μl each) were withdrawn and analyzed by gelatin zymography (Deryugina, E. I., et al. (2001)) to identify the proteolytic activity and the activation status of MMP-2 naturally synthesized by IS-CD8^+ cells. […] Pro-MMP-2 was isolated from a conditioned medium of p2AHT2A72 cells derived from an HT1080 fibrosarcoma cell line sequentially transfected with the E1A and MMP-2 cDNAs (Strongin, A. Y., et al. (1995)).

[1] = test system: CD44 shedding in IS-CD8+ cells; test: CD44 shedding in adherent IS-CD8+ cells, Western blotting; assay type: cell-based, NOD mouse
Description: Western Blotting—IS-CD8^+ cells were surface biotinylated for 1 h at 4° C. with 0.1 mg/ml sulfo-NHS-LC-biotin (Pierce, Rockford, Ill.). Following washes to remove biotin, cells were co-incubated for 2 h with MT1-MMP-CAT in serum-free, unsupplemented Click's medium. The cells were then lysed with 50 mM N-octyl-β-D-glucopyranoside in phosphate-buffered saline supplemented with 1 mM CaCl2, 1 mM MgCl2, and protease inhibitor mixture containing phenylmethylsulfonyl fluoride (1 mM) and aprotinin, pepstatin, and leupeptin (1 μg/ml each). Biotin-labeled CD44 was captured from the cell lysate and from the medium aliquots on streptavidin-agarose beads. The captured samples were examined by Western blotting with the CD44 (clone IM7.8.1) antibody to determine the released, soluble, CD44 ectodomain in the medium samples and the residual, membrane-anchored, cellular CD44 in the cell lysates.
Western blotting—IS-CD8^+ cells were surface biotinylated for 1 hr at 4° C. with 0.1 mg/ml of sulfo-NES-LC-biotin (Pierce). Following washes to remove biotin, the labeled cells were allowed to adhere in serum-free medium to plastic coated with 2% type I collagen/gelatin for 4 h or were kept in suspension. Under these experimental conditions, the vast majority of the cells became attached to gelatin. […] The cells were then lysed with 50 mM N-octyl-β-D-glucopyranoside in PBS supplemented with 1 mM CaCl2, 1 mM MgCl2, and protease inhibitor cocktail containing phenylmethylsulfonyl fluoride (1 mM) and aprotinin, pepstatin, and leupeptin (1 μg/ml each). Biotin-labeled CD44 was captured from the cell lysate and from the medium aliquots on streptavidine-Agarose beads. The captured samples were examined by Western blotting with the CD44 (clone IM7.8.1) antibody to determine the released, soluble, CD44 ectodomain in the medium samples and the residual, membrane-anchored, cellular CD44 in the cell lysates.

[2] = AG3340 1 mg/kg i.p. with insulin, 40 days

## CC1(C)SCCN(S(=O)(=O)c2ccc(Oc3ccncc3)cc2)[C@H]1C(=O)NO [AG3340]
NOD mice; [2]
  islet regeneration in the pancreatic parenchyma: de novo formation of the islet-like structures
  number of the intact islets and the islets with limited peri-islet insulitis: increase
NOD mice; insulin jointly with AG3340 for 40 days, then no external insulin
  glycemia after insulin injections were suspended: normoglycemic/mildly hyperglycemic for several weeks
NOD mice; insulin s.c. jointly with AG3340 1 mg/kg i.p. every two-three days, 40 days
  severity of insulitis compared to the control: significant and promising reduction
NOD mice; short-term treatment, AG3340 1 mg/kg i.p. with insulin, 40 days
  return of overtly diabetic mice to normoglycemia: not sufficient
MT1-MMP; Example 2: AG3340 50 μM, TIMP-1 and TIMP-2 100 ng/ml, 18 h
  activation of MMP-2 in adherent cells: fully blocked
MT1-MMP; Example 3: inhibitors added for 18 h
  activation of MMP-2 in adherent cells: fully blocked
[1]; Example 2: AG3340 50 μM, TIMP-1 and TIMP-2 100 ng/ml
  shedding of CD44 in adherent cells: fully blocked
[1]; Example 3
  shedding of CD44 in adherent cells: fully blocked
